Source: patent US20260193254A1, “2-OXOQUINAZOLINE CRYSTALLINE FORMS” (IDEAYA Biosciences, Inc., priority 2022, published 2026)
≈ marks a conversion by molar mass, not a printed value.

Key:
Assay type in all cases: physicochemical
[1] = Equilibrium solubility in FeSSIF and FaSSIF; details: for solubility at 24 h: 37 °C, thermodynamic from solid, target concentration 1 mg/mL, HPLC method 1 or 2 (footnote); for impurity in solubility sample: no unit printed for impurity (column head mg/mL)
Description: (§1) Solid part and liquid part were separated by filtration. Solubility was measured by HPLC. Solid part (wet cake) was investigated by XRPD.

[2] = Bulk stability of crystalline forms; parameters: key: Color A: All No change of color; details: Solid state
From the text: (§2) Solids obtained after bulk stability study were characterized by XRPD and HPLC.

[3] = Equilibrium solubility in SGF (pH 2.0), 0.1 N HCl (pH 1.2) and phosphate buffer (pH 8.0); details: for Solubility: target concentration 1 mg/mL, HPLC method 2
Description: as §1

[4] = Bulk stability of crystalline forms; details: for Purity, Bulk (HPLC): Solid state
From the text: as §2

Water activity study = details: acetonitrile/water system, 5° C. and 25° C.
From the text: These solvent mixtures were saturated with the compound of Formula (I) before addition of the polymorph seeds. […] These solvent mixtures were saturated with the compound of Formula (I) before addition of the polymorph seeds. Obtained suspension was filtered. Solid part (wet cake) was investigated by XRPD.

[5] = Intrinsic dissolution rate (IDR) evaluation in FaSSIF; details: FaSSIF at 37° C.
Description: Only one surface of the pellet was exposed (surface area=0.50 cm^2) to 900 mL FaSSIF, the dissolution medium. Temperature of chamber medium was set as 37±0.5° C. Shaft rotation as 100 rpm and sampling time points as 2 min, 5 min, 10 min, 15 min, 20 min, 25 min, 30 min, 35 min, 40 min, 50 min, 60 min, and 120 min. 2 mL sample solution was withdrawn at each time point and centrifuged at 14,000 rpm for 5 min to isolate supernatant. Then concentration of the supernatant was analyzed by HPLC. After 120 min, XRPD of disc surface was measured.

[6] = Hygroscopicity: water sorption and desorption by dynamic vapor sorption (DVS)
Description: In some embodiments, the crystalline form described herein is further characterized by is further characterized by a dynamic vapor sorption (DVS) profile. In some embodiments, a DVS is recorded according to the method as described herein with a cycle of 40-0-95-0-40% RH at 25° C.
Water sorption and desorption behaviors of Form A, Form C, Form D, and Form T were investigated by DVS at 25° C. with a cycle of 40-0-95-0-40% RH. Dm/dt was 0.002. Minimum equilibration time was 60 min. Maximum equilibration time was 360 min. XRPD was measured after DVS test to determine potential form change.

[7] = FaSSIF, pH 6.5, 37° C., 24 hours
[8] = FeSSIF, pH 5.0, 37° C., 24 hours
[9] = 25° C./92% RH, open container, 1 week
[10] = 25° C./92% RH, open container, 2 weeks
[11] = 40° C./75% RH, open container, 1 week
[12] = 40° C./75% RH, open container, 2 weeks
[13] = 60° C., tight container, 1 week
[14] = 60° C., tight container, 2 weeks
[15] = pH 1.2 (0.1N HCl), 37° C., 24 hours
[16] = pH 8 (phosphate buffer), 37° C., 24 hours

SMILES: Nc1nc(=O)n(-c2ccccc2Cl)c2nc(C(F)(F)F)ccc12 [Form A, 4-Amino-1-(2-chlorophenyl)-7-(trifluoromethyl)pyrido[2,3-d]pyrimidin-2(1H)-one]
- solubility at 24 h ([1]; FaSSIF, pH 6.5, fassif, pH 6.5, 37° C.): 90 µg/mL (≈ 264 µM)
- XRPD of solid after solubility test [1, 7]: Form A + NaCl
- final pH [1, 7]: 6.5
- impurity in solubility sample [1, 7]: no impurity
- solubility at 24 h ([1]; FeSSIF, pH 5, fessif, pH 5.0, 37° C.): 240 µg/mL (≈ 704 µM)
- final pH [1, 8]: 5.0
- impurity in solubility sample [1, 8]: no impurity
- Color [2, 9]: A
- Color [2, 10]: A
- Color [2, 11]: A
- Color [2, 12]: A
- Color [2, 13]: A
- Color [2, 14]: A
- form obtained from the solubility study in 0.1 N HCl solution ([3]; 0.1 N HCl): Form R
- XRPD pattern after the solubility test in 0.1 N HCl and SGF ([3]; 37° C., 24 hours): two new patterns were obtained
- form obtained from the solubility study in simulated gastric fluid ([3]; SGF, pH 2.0): Form Q
- XRPD of solid after solubility test ([3]; SGF, pH 2.0, 37° C., 24 hours): Form Q
- final pH ([3]; SGF, pH 2.0, 37° C., 24 hours): 2.2
- Solubility ([3]; SGF, pH 2.0, 37° C., 24 hours): 60 µg/mL (≈ 176 µM)
- XRPD of solid after solubility test [3, 15]: Form R
- final pH [3, 15]: 1.3
- Solubility [3, 15]: 100 µg/mL (≈ 294 µM)
- XRPD of solid after solubility test [3, 16]: Form A
- final pH [3, 16]: 8.0
- impurity in solubility sample [3, 16]: no impurity
- Solubility [3, 16]: 30 µg/mL (≈ 88.1 µM)
- Purity, Bulk (HPLC) [4, 9]: 99.0%
- Purity, Bulk (HPLC) [4, 10]: 99.2%
- Purity, Bulk (HPLC) [4, 11]: 99.0%
- Purity, Bulk (HPLC) [4, 12]: 99.1%
- Purity, Bulk (HPLC) [4, 13]: 99.1%
- Purity, Bulk (HPLC) [4, 14]: 99.2%
- Initial purity ([4]; before stress, HPLC): 99.0%
- chemical stability and physical stability (bulk stability) ([4]; stressed under 25° C./92 RH, 40% C/75% RH and 60° C., XRPD and HPLC): good chemical stability and physical stability
- form obtained in water activity experiments (relative stability of Forms A, C, D and E) (Water activity study): highly crystalline Form A was obtained in all the solvent mixtures
- XRPD after IDR ([5]; disc surface after 120 min): No form change
- Concentration detected during IDR test (Comments) ([5]; for Form V and Form A remains same during the whole process, LOQ for Form T and amorphous form): (0.006 mg/mL)
- hygroscopicity ([6]; DVS at 25° C., cycle 40-0-95-0-40% RH): slightly hygroscopic
- water uptake ([6]; DVS, in 95% RH at 25° C.): 0.7%
- form change after the DVS test ([6]; XRPD after DVS): No form change
